Test results published in PMC5047629, “Synthesis, Pharmacological Profile and Docking Studies of New Sulfonamides Designed as Phosphodiesterase-4 Inhibitors” (PLoS ONE, 2016).

Key:
[1] = system: guinea-pig tracheal smooth muscle cells; assay: cAMP intracellular levels in airway smooth muscle cells (radioimmunoassay); assay type: cell-based; conditions: 100 μM, S1B Fig
Method: Intracellular cAMP concentrations were assayed in primary cultured guinea-pig tracheal smooth muscle cells as reported. Briefly, smooth muscle cells obtained from guinea pig tracheas were cultured in DMEM containing 10% fetal bovine serum, 100 units/ml of penicillin, […] of streptomycin and 2 mM of glutamine for 3 to 7 days. After the third cell splitting, 10^6 cells/well were grown in 24-well plates. At confluence, smooth muscle cells were washed with PBS and incubated with 100 μM LASSBio-448 or forskolin (adenylyl cyclase activator), in the presence or absence of 100 μM SQ22536 (adenylyl cyclase inhibitor) for 30 min. Lysed cells were collected and the intracellular cAMP was evaluated by means of radioimmunoassay (TRK 432–Cyclic AMP^[3H] Biotrak assay system—Amersham Pharmacia Biotech, Buckinghamshire, England) following manufacturer’s guidelines.

PDE4C = target: T1, PDE4C (Homo sapiens, UniProt Q08493); assay: PDE4C inhibition, IMAP fluorescence polarization protocol; assay type: biochemical
T1 construct: purchased MDS PHARMA
T1 sequence (Q08493 whole entry): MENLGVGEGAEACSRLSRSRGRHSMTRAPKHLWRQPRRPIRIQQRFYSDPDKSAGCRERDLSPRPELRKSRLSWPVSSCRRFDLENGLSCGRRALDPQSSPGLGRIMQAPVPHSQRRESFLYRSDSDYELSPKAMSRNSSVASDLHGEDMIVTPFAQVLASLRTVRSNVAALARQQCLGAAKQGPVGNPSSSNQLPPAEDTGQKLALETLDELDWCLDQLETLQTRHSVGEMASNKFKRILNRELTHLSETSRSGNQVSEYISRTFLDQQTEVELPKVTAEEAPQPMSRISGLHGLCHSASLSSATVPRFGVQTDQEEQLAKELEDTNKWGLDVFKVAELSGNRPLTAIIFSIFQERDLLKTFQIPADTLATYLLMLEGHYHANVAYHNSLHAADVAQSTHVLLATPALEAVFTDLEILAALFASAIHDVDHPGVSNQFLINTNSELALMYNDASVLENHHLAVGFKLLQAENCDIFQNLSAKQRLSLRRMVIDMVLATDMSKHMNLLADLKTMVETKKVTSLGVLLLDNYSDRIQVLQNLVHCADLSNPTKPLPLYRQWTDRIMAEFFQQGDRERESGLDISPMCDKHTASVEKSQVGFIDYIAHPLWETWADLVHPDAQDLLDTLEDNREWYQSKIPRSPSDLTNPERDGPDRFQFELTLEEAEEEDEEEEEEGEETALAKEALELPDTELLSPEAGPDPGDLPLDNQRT
Method: (§1) The enzymatic reactions were carried at room temperature in a 96-well black plate by co-incubating 25 μL of 200 nM FAM-cAMP (R7513), 5 μL of putative inhibitory compounds and 20 μL of the PDE4 isoform dissolved in assay buffer (R7364) for 1 h. All enzymes were obtained from human recombinant sources (MDS PHARMA), whereas the other reagents were purchased from Molecular Devices. […] PDE4 inhibitors were dissolved in dimethyl sulfoxide (DMSO) at a final concentration of 0.1%.
(§2) The inhibitory activities of the new sulfonamide derivatives were evaluated for their selectivity against the four isoforms of human PDE4, i.e. PDE4A, PDE4B, PDE4C, and PDE4D, using an IMAP-FP protocol.

PDE4D = target: T2, PDE4D (Homo sapiens, UniProt Q08499); assay: PDE4D inhibition, IMAP fluorescence polarization protocol; assay type: biochemical
T2 construct: purchased MDS PHARMA
T2 sequence (Q08499 1-673 isoform Q08499-2): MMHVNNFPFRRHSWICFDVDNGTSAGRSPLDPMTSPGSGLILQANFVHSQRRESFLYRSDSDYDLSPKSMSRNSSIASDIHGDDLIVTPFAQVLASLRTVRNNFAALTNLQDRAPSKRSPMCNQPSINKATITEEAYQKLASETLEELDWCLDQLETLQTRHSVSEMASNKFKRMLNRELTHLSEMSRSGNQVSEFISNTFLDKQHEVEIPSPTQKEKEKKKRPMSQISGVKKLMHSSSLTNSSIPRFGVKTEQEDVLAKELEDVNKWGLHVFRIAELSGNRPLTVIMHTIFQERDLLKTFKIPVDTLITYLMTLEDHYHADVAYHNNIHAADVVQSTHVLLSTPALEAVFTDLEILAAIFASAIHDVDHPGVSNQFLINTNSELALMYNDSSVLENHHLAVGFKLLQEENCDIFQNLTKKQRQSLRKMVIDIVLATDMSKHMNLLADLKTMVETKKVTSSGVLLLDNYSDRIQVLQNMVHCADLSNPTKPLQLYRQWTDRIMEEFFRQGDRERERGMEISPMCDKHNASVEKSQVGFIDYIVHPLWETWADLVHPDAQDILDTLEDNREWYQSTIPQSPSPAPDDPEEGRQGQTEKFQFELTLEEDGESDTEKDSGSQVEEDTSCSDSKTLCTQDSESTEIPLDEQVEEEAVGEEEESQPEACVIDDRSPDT
Method: as §1, §2

PDE4A = target: T3, PDE4A (Homo sapiens, UniProt P27815); assay: PDE4A inhibition, IMAP fluorescence polarization protocol; assay type: biochemical
T3 construct: purchased MDS PHARMA
T3 sequence (P27815 1-647 isoform P27815-4): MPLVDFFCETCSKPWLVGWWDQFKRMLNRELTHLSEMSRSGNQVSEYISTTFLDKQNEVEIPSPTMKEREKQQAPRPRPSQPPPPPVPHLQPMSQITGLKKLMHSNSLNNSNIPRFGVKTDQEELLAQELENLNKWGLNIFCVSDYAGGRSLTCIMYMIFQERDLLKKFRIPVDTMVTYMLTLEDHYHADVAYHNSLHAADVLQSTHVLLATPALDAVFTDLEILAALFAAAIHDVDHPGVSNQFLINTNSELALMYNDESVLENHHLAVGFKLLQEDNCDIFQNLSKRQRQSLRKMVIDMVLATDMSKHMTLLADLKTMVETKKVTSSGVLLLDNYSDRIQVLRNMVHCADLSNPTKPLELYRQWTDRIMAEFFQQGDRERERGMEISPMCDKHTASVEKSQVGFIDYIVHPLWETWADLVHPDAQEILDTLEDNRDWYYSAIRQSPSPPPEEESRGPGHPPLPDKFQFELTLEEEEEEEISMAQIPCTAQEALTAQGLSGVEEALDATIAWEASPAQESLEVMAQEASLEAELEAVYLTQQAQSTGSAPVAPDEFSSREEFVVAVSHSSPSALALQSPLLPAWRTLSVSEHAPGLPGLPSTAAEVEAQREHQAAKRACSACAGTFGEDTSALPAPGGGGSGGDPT
Method: as §1, §2

guinea-pig trachea = assay: Tracheal smooth muscle contraction in vitro induced by carbachol; conditions: 100 μM, S1A Fig
Method: Tracheas from guinea pigs were obtained and prepared as described previously. An initial tension of 1 g was applied to the tracheas for 60 min to obtain a constant resting tension. To confirm the viability of the preparation, the response to carbachol (2.5 μM) was recorded. After washout of carbachol and re-establishement of the baseline resting tension, tissues were preincubated with LASSBio-448 (100 μM) or vehicle (DMSO 0.1%) 15 min before re-exposed to cumulative addition of carbachol (10^−8–10^−4 M). The tracheal rings were pretreated 10 min before application of LASSBio-448 with 100 μM SQ22536 (adenylyl cyclase inhibitor). Stimulation-induced isometric contractile responses were measured with a force-displacement transducer (Ugo Basile, Comerio, Italy) and the readout used to assess contractility was obtained by isolated organ data acquisition software (Proto 5; Letica Scientific Instruments, Barcelona, Spain). Contractile responses were expressed as a percentage of the maximal contraction induced by 2.5 μM carbachol.

PDE4B = target: T4, PDE4B (Homo sapiens, UniProt Q07343); assay: PDE4B inhibition, IMAP fluorescence polarization protocol; assay type: biochemical
T4 construct: purchased MDS PHARMA
T4 sequence (Q07343 whole entry): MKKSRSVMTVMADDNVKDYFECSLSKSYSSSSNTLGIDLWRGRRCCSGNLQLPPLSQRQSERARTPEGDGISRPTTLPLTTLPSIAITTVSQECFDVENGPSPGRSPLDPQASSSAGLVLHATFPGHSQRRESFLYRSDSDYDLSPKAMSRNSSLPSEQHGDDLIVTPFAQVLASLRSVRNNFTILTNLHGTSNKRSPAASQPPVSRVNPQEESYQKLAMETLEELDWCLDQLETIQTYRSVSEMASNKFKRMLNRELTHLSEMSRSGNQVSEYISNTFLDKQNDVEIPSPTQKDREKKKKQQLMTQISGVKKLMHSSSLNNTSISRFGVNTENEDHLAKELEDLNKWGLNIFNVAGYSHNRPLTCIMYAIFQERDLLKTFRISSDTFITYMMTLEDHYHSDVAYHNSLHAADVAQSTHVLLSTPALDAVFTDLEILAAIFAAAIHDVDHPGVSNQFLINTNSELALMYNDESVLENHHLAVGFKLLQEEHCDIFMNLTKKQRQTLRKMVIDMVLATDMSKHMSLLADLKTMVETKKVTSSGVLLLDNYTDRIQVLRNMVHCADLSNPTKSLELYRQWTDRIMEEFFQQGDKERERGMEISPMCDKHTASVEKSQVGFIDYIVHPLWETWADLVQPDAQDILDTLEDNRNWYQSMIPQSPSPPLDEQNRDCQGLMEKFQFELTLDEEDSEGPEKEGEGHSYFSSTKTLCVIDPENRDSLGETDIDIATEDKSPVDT
Method: as §1, §2

A/J mice = assay: Short-term murine model of asthma (OVA provocations at days 19 and 20), prophylactic treatment; assay type: in vivo; conditions: 100 mg/Kg oral, 1 h before each OVA challenge, 24 h after last provocation
Method: Sensitization was performed by means of a subcutaneous injection of 50 μg ovalbumin (OVA) (grade V; Sigma-Aldrich, St. Louis, MO) adsorbed to 5 mg of Al(OH)3 in 0.2 mL of sterile 0.9% NaCl (saline) at days 0 and 14. Intranasal OVA provocations (25 μg /25 μL saline) were performed at 19 and 20 days post-sensitization under isofluorane volatile anaesthesia (Cristalia, São Paulo, Brazil). Alternatively, sensitization as described above were done at days 0 and 7, while the OVA provocations were carried out at days 14, 21, 28 and 35 [39]. Negative control groups were represented by sensitized mice in which allergen was replaced by saline as a challenge. […]
The EPO activity present in lung tissue was determined with a colorimetric assay as described by Strath et al. (1985), with minor modifications. […] The optical density reading was performed on the SpectraMax M5 spectrophotometer (Molecular Devices) at a wavelength of 492 nm.
Twenty-four hours after the last challenge the animals were killed by an over dose of thiopental (200 mg/kg, i.p.) and bronchoalveolar lavage (BAL) was performed three times by intratracheal instillation of 500 μL of PBS and EDTA (10 mM) through a trachea cannula and gently aspirating the fluid. […] Total leukocyte numbers were measured in Neubauer chambers using light microcopy after diluting the samples in Türk solution (2% acetic acid). […]

[2] = 1 μM, mean ± SEM, 3 experiments
[3] = recombinant enzyme, mean ± SEM of three measurements

What does the source list for `COc1ccc(CCNS(=O)(=O)c2cc3c(cc2C)OCO3)cc1OC` [6a (LASSBio-448), N-(3,4-dimethoxyphenethyl)-6-methylbenzo[d][1, 3]dioxole-5-sulfonamide]?
cAMP intracellular levels in cultured tracheal smooth muscle cells ([1]; levels comparable to forskolin): up-regulated; cAMP elevating effect after pre-treatment with SQ22,536 ([1]; pre-treatment with 100 μM SQ22,536): clearly abrogated; PDE4C inhibition (PDE4C; [2]): able to inhibit; inhibition at 1 µM (PDE4C; [2]): 33.7 ± 0.4%; IC50 (PDE4C; [3]): 1100 ± 130 nM; inhibition at 1 µM (PDE4D; 1 μM, mean ± SEM, 3 experiments, read-out: PDE4D3 inhibition): 26.5 ± 0.7%; selective inhibitory index (SI) PDE4D/PDE4A (PDE4D; ratio of IC50 values): 6.7; selective inhibitory index (SI) PDE4D/PDE4B (PDE4D; ratio of IC50 values): 3.3; IC50 (PDE4D; [3]): 4.7 ± 0.09 µM; PDE4A1A inhibition (PDE4A; [2]): able to inhibit; inhibition at 1 µM (PDE4A; 1 μM, mean ± SEM, 3 experiments, read-out: PDE4A1A inhibition): 36.5 ± 0.7%; IC50 (PDE4A; [3]): 700 ± 70 nM; tracheal contraction induced by cumulative carbachol (guinea-pig trachea): inhibited; relaxant effect after pre-treatment with SQ22,536 (guinea-pig trachea; pre-treatment with 100 μM SQ22,536 (adenylyl cyclase inhibitor)): clearly abrogated; PDE4B1 inhibition (PDE4B; [2]): able to inhibit; inhibition at 1 µM (PDE4B; 1 μM, mean ± SEM, 3 experiments, read-out: PDE4B1 inhibition): 31 ± 1.1%; IC50 (PDE4B; [3]): 1400 ± 90 nM; eosinophil levels in bronchoalveolar lavage fluid (A/J mice; Fig 4A): clearly prevented the up-regulation; eosinophil levels in lung tissue homogenates (EPO colorimetric assay) (A/J mice; Fig 4B): clearly prevented the up-regulation
